≈ marks a conversion by molar mass, not a printed value. Starred links: 1 amine or outer side, 2 acyl side, 3 side chain; linkers in the order of their positions; H or OH if unused. Positions of bridges follow the written chain, without caps; N, C: chain ends. Non-standard residues stand in square brackets, D forms with d. Residues, ends and D or L forms follow the SMILES beside them. *: point of attachment. hTyr(3S-OH,4S-OH,3'-OSO3H) = N[C@H](C(=O)O)[C@H](O)[C@@H](O)c1ccc(O)c(OS(=O)(=O)O)c1; pTerphenylCO(4''-OnC5H11) = CCCCCOc1ccc(-c2ccc(-c3ccc(C(=O)*)cc3)cc2)cc1; Orn(4R-OH,5R-OH) = O=C([C@H](C[C@@H](O)[C@@H](O)N[*:3])N[*:1])[*:2]; hTyr(3S-OH,4S-OH) = N[C@H](C(=O)O)[C@H](O)[C@@H](O)c1ccc(O)cc1; Pro(3S-OH,4S-Me) = C[C@H]1CN[C@H](C(=O)O)[C@H]1O; X2 = CCCCCOc1ccc(-c2cc(-c3ccc(C(=O)*)cc3)no2)cc1; Gln(3R-OH) = NC(=O)C[C@@H](O)[C@H](N)C(=O)O; Hyp = O=C(O)[C@@H]1C[C@@H](O)CN1
What was measured:
Mclk1 KO cells = assay: Viability in glucose-free galactose-containing medium (resazurin reduction assay); type: cell-based, mouse; conditions: sufficiently high dose (FIG. 3A)
Experimental: Tissue culture and viability assays. […] To score growth and viability in galactose, cells were first grown in high glucose DMEM medium to confluency and then switched to glucose-free DMEM media (Thermo Fisher Cat No 26400036) supplemented with 10 mM galactose (Sigma Cat No G5388), 1 mM sodium pyruvate (Thermo Fisher Cat No 11360070), 10% dialyzed FBS (Thermo Fisher Cat No 26400036) and 1% antibiotic-antimycotic solution. Cell viability was determined by resazurin (Sigma Cat No R7017) reduction assay or crystal violet staining following standard procedures.
The screen uses cells lacking UQ (e.g., Mclk1 KO cells) and consists of three key steps: • 1) Day 0: preparation of Mclk1 KO cells in 96-well plates in standard (glucose-containing) culture medium. • 2) Day 1: changing to glucose-free galactose-containing medium and adding compounds to be screened at a concentration of approximately 10 μM. • 3) Day 4 to 6: following 3 to 5 days of incubation with the compound to be screened, media were removed and cell viability was assayed by resazurin reduction assay.
(§1) The resazurin cell viability assay. Briefly, resazurin was added directly to plates at 1/10 the volume of glucose culture medium. Viable cells with active metabolism can reduce resazurin into resorufin which causes a colour change from blue to pink. After a 2 hr incubation, plates were read on a plate reader (Tecan) to record absorbance at 570 nm and 600 nm. The cell viability was scored as a percentage relative to the signal from untreated glucose-grown wells. Consequently, each screened compound may be described by its effect (no, partial or full rescue) on survival of the KO cells in galactose medium.

wildtype MEFs = assay: Cellular UQ10 levels (quinone quantification by HPLC); type: cell-based, mouse; conditions: for cellular uptake of exogenous UQ10: in combination with UQ10, vs UQ10 alone
Experimental: (§2) Quantification of quinones. Quinone content was detected and quantified by HPLC as previously described. […] After centrifugation for 5 min at 8,000×g, the hexane layer was collected and evaporated in a vacuum centrifuge. The quinone residue was then dissolved in ethanol and stored at −20° C. until HPLC analysis. The HPLC analysis was performed on a reverse phase C18 column (25.0×0.46 cm, 5 μm, Highchrom) using UV detection at 275 nm (Beckman System Gold). The mobile phase was methanol/ethanol (70:30 v/v) and isocratic elution was used at a flow rate of 1.8 ml/min.

[1] = Drop collapse assay (surfactant activity); type: physicochemical
Experimental: Drop collapse assay is a simple detection method of surface active agents. It relies on the capacity of surfactants to destabilize the liquid droplets on an oily surface. The drop-collapsing ability of McC1 along with other known potent surfactants was characterized. For each, 40 ul of compound solution in water was pipetted onto a hydrophobic Parafilm surface and the diameter of the drops was measured 1 min later using a ruler.

Pdss2/Mclk1 DKO cells [2] = assay: Viability in glucose-free galactose-containing medium (resazurin reduction assay); type: cell-based, mouse
Experimental: Tissue culture and viability assays. […] Cell viability was determined by resazurin (Sigma Cat No R7017) reduction assay or crystal violet staining following standard procedures.
as §1
The screen also uses cells lacking UQ biosynthesis (e.g., DKO cells) and its protocol is essentially the same as the galactose-only screen except that in step 2, a minimal amount of UQ10 is added into the galactose screening media at a concentration at which the added UQ10 is insufficient by itself to support survival.

[3] = Experimental: Solubilization studies. In order to link the surfactant properties of McC1 and its stimulating impact on UQ10 uptake, the solubilization characteristics of McC1 on UQ10 have been determined. First, solubilization test was performed by overnight shaking of a mixture of UQ10 and McC1 in water.
Additional solubilization tests were performed using sonication. Excess amount of UQ10 was mixed with McC1 by sonication for 2 min in water.
Like caspofungin/McC1, surfactin is a cyclic lipopeptide. It is produced from various strains of Bacillus subtilis. Structurally it consists of a peptide chain formed by seven amino acids linked to a β-hydroxyl fatty acid via a lactone bond. It is known for its exceptional surfactant power. […] Then, solubilization test was performed by overnight shaking of a mixture of UQ10 and surfactin in water. The mixture were subjected to brief centrifugation to separate undissolved UQ10 before absorbance of the resultant clear supernatant at 275 nm was measured spectrophotometrically.
Several other surfactants were tested for their ability to solubilize UQ. Briefly, excess amount of UQ10 was mixed with water solution of the tested surfactants using sonication. The resultant suspensions were then filtered through a 0.45 μm syringe filter to remove undissolved UQ10.

Pdss2/Mclk1 DKO cells [4] = assay: Oxygen consumption rate (OCR) by Seahorse XF analyzer; type: cell-based, mouse; conditions: co-treatment with UQ10
Experimental: Measurement of oxygen consumption by Seaborse XF analyzer. Cells were seeded in XF v7 24-well plates (Seahorse Bioscience) at ˜40,000 cells/well for 24 hr. Prior to the measurements, cell medium was replaced with Seahorse XF base medium supplemented with 5.5 mM glucose (Sigma Cat No G8769), 2 mM Glutamax (Thermo Fisher Cat No 35050061) and 1 mM sodium pyruvate and allowed to equilibrate for 1 hour at 37° C. Oxygen consumption was measured first under baseline condition, followed by subsequent addition of 1 μg/ml oligomycin (Sigma Cat No 04876), 0.8 μM FCCP (Sigma Cat No C2920) and a combination of 1 μM rotenone (Sigma Cat No R8875) and 5 μM antimycin A (Sigma Cat No A8674) to assess the basal and maximal mitochondrial respiration rates. Four baseline measurements were recorded before the consecutive addition of the above-mentioned compounds, and three response measurements were taken after the addition of each compound. Results were finally normalized to protein content determined using the Bradford reagent (Bio-Rad). For experiments that involved culturing cells in the presence of lipoprotein-deficient serum (LPDS), cells were grown in culture medium supplemented with LPDS (Sigma S5394) for 1 week before OCR was measured using a Seahorse XF-24 extracellular flux analyzer as described above.

Pdss2/Mclk1 DKO MEFs = assay: Cellular UQ10 levels (quinone quantification by HPLC); type: cell-based, mouse; conditions: in combination with UQ10, vs UQ10 alone
Experimental: as §2

[5] = system: mitochondria of wild-type MEFs; assay: UQ levels in mitochondrial extracts; type: cell-based, mouse
Excerpt: FIGS. 7A to 7D present exemplary data showing that McC1 is capable of increasing the uptake of exogenous UQ into cells and mitochondria. (A) Bar chart showing change of UQ10 levels (as measured in ng/μg of protein) in Pdss2/Mclk1 DKO MEFs after treatment with UQ10, McC1 alone, or UQ10 and McC1 in combination. **p<0.01, ***p<0.001 (one-way ANOVA). (B) Bar charts presenting exemplary data showing changes of UQ levels in wildtype MEFs after treatment with UQ10, McC1 alone, or both in combination. Results are shown as cellular UQ10 levels (as provided in ng/μg of protein, left panel) or UQ9 levels (as provided in ng/μg of protein, right panel) in untreated cells, after treatment with 12.5 μM of McC1, after treatment with 2.5 μM of UQ10, or after co-treatment UQ10 and McC1. Results are mean±SEM (n=3). ****p<0.0001 (one-way ANOVA). (C) Bar chart presenting exemplary data showing changes of UQ10 and UQ9 levels in mitochondrial extracts from wildtype MEFs after treatment with UQ10 alone, or in combination with McC1. Results are shown as UQ9 and UQ10 levels in ng/μg of protein. Results are mean±SEM (n=3). ****p<0.0001 (student's t-test). (D) Bar chart presenting exemplary data showing changes of UQ10 level in mitochondrial extracts from Pdss2/Mclk1 DKO MEFs after treatment with UQ10 alone, or in combination with McC1. Results are shown as UQ10 levels (as provided in ng/μg of protein) in untreated DKO cells, after treatment with 2.5 μM of UQ10, or after co-treatment 2.5 μM of UQ10 and 12.5 μM of McC1. ND: Not Detectable. Results are mean±SEM (n=3). ****p<0.0001 (one-way ANOVA).
as §2

[6] = cited from earlier work

O=C(O)c1ccc(O)cc1O [2,4-DHB, 2,4-dihydroxybenzoic acid]
survival of Mclk1 KO cells in galactose-containing media (Mclk1 KO cells): allows them to survive in galactose-containing media

CCCCCOc1ccc(-c2ccc(-c3ccc(C(=O)N[C@H]4C[C@@H](O)[C@@H](O)NC(=O)[C@@H]5[C@@H](O)[C@@H](C)CN5C(=O)[C@H]([C@@H](C)O)NC(=O)[C@H]([C@H](O)[C@@H](O)c5ccc(O)cc5)NC(=O)[C@@H]5C[C@@H](O)CN5C(=O)[C@H]([C@@H](C)O)NC4=O)cc3)cc2)cc1 [AFG, Anidulafungin] ({pTerphenylCO(4''-OnC5H11)}-[Orn(4R-OH,5R-OH)]T[Hyp][hTyr(3S-OH,4S-OH)]T[Pro(3S-OH,4S-Me)]; lactam 1-C)
cellular uptake of exogenous UQ10 (wildtype MEFs): did not further increase the level of UQ10 | surfactant (drop collapse) activity [1]: no drop collapse activity

CCCCCOc1ccc(-c2cc(-c3ccc(C(=O)N[C@H]4C[C@@H](O)[C@@H](O)NC(=O)[C@@H]5[C@@H](O)[C@@H](C)CN5C(=O)[C@H]([C@H](O)CC(N)=O)NC(=O)[C@H]([C@H](O)[C@@H](O)c5ccc(O)c(OS(=O)(=O)O)c5)NC(=O)[C@@H]5C[C@@H](O)CN5C(=O)[C@H]([C@@H](C)O)NC4=O)cc3)no2)cc1 [MFG, Micafungin] (X2-[Orn(4R-OH,5R-OH)]T[Hyp][hTyr(3S-OH,4S-OH,3'-OSO3H)][Gln(3R-OH)][Pro(3S-OH,4S-Me)]; lactam 1-C)
cellular uptake of exogenous UQ10 (wildtype MEFs): did not further increase the level of UQ10 | surfactant (drop collapse) activity [1]: no drop collapse activity

CCCCCCCC/C=C\CCCCCCCC(=O)ON1C(=O)CC(S(=O)(=O)O)C1=O (centres unmarked) [SSO, sulfo-N-succinimidyl oleate]
effect on cellular uptake of UQ10 (wildtype MEFs; cells treated with UQ10 or UQ10 combined with McC1 (FIG. 8)): inhibits cellular uptake of UQ10

COC1=C(OC)C(=O)C(C/C=C(\C)CC/C=C(\C)CC/C=C(\C)CC/C=C(\C)CC/C=C(\C)CC/C=C(\C)CC/C=C(\C)CC/C=C(\C)CCC=C(C)C)=C(C)C1=O [UQ9, ubiquinone-9]
rescue from galactose-induced cell death by UQ supplementation (Pdss2/Mclk1 DKO cells [2]; if provided at a sufficient amount): sufficient to rescue them from galactose-induced cell death

CC(C)CCCCCCCCC[C@@H]1CC(=O)N[C@@H](CCC(=O)O)C(=O)N[C@@H](CC(C)C)C(=O)N[C@H](CC(C)C)C(=O)N[C@@H](C(C)C)C(=O)N[C@@H](CC(=O)O)C(=O)N[C@H](CC(C)C)C(=O)N[C@@H](CC(C)C)C(=O)O1 [surfactin] (HELM PEPTIDE1{E.L.[dL].V.D.[dL].L}|CHEM1{[CC(C)CCCCCCCCC[C@H](CC(=O)[*:1])O[*:2]]}$PEPTIDE1,CHEM1,1:R1-1:R1|PEPTIDE1,CHEM1,7:R2-1:R2$$$V2.0)
solubilization power for UQ compared to McC1 [3]: lower solubilization power than McC1 | water solubility of UQ10 in the presence of the compound [3]: increased | viability rescue of DKO cells (Pdss2/Mclk1 DKO cells [2]; 10 μM surfactin with a small amount of UQ10 (FIG. 17D)): full viability rescue | survival of DKO cells in galactose medium (Pdss2/Mclk1 DKO cells [2]; compound by itself, no UQ10 added): no effect | mitochondrial respiration (OCR) compared with UQ10 treatment alone (Pdss2/Mclk1 DKO cells [4]): Higher respiration rates | cellular uptake of exogenous UQ10 (Pdss2/Mclk1 DKO MEFs): improves UQ10 uptake into cells | UQ uptake into mitochondria compared to McC1 ([5]; FIG. 17C right panel): less stimulating action on UQ uptake into mitochondria | uptake of exogenous UQ10 into mitochondria ([5]; in combination with UQ10, vs UQ10 alone): augmented uptake of UQ into mitochondria | surfactant (drop collapse) activity [1]: potent surfactant activity

CO[C@H]1C[C@@H]2CC[C@@H](C)[C@@](O)(O2)C(=O)C(=O)N2CCCC[C@H]2C(=O)O[C@H]([C@H](C)C[C@@H]2CC[C@@H](OC(=O)C(C)(CO)CO)[C@H](OC)C2)CC(=O)[C@H](C)/C=C(\C)[C@@H](O)[C@@H](OC)C(=O)[C@H](C)C[C@H](C)/C=C/C=C/C=C/1C [temsirolimus]
solubility in water [6]: 20 µg/mL (≈ 19.4 µM)

COc1cc([C@@H]2c3cc4c(cc3[C@@H](O[C@@H]3O[C@@H]5CO[C@@H](c6cccs6)O[C@H]5[C@H](O)[C@H]3O)[C@H]3COC(=O)[C@H]23)OCO4)cc(OC)c1O [teniposide]
solubility in water [6]: 59.8 µg/mL (≈ 91.1 µM)

Saponins
solubilization of UQ10 in water by the compound [3]: improve the water solubility of UQ10

lipopeptide detergent-12 [LPD-12]
solubilization of UQ10 in water by the compound [3]: increases the water solubilization of UQ10

From patent US12053441B2, “Formulations for improving the delivery of hydrophobic agents” (THE ROYAL INSTITUTION FOR THE ADVANCEMENT OF LEARNING / …, priority 2018, dated 2024)
